Laboratory results as given in patent US20230293560A1, “METHOD FOR MODULATING THE BLADDER MICROBIOME TO IMPROVE BLADDER HEALTH” (Kimberly-Clark Worldwide, Inc., priority 2020, published 2023).
Values joined by “and” are separate entries in the source; they are usually repeats but may differ in a detail not shown here. Equal values may be shown once.

Experiments:
[1] = tested on: L. crispatus, KC18-1173-1, Bladder (Lc-3); assay: Competition assay, L. crispatus recovered; type: cell-based, Lactobacillus crispatus; conditions: Table 6, prebiotic 2%, one line per replicate; for Lc-3 MRS Δ: change vs start, background growth in CHL media subtracted, MRS agar; for Lc-3 MRS end: competition Sa-2 vs Lc-3, 48 hours, enumerated on MRS agar
Experimental: (§1) Further testing was conducted to put the prebiotic compounds in competition assay testing, as further described in the test methods section herein. In the competition assay testing, each competition involved testing a single prebiotic compound with the commensal bacteria species of L. crispatus, KC18-1173-1, Bladder (“Lc-3”—Table 2) against the pathogenic bacterial species of S. anginosus, KC18-1131-3B, Bladder (“Sa-2”—Table 2).
(§2) • 1. An in house bacterial agar was created based on MRS agar (Kaplan and Hutkins, 2000) where the glucose is substituted for the prebiotic to be tested (either dextran MW ˜6,000, alpha-cyclodextrin, glucomannan, or pectin), bromocresol purple was included as a pH indicator. • 2. Bacteria were enumerated on each agar and color changes were recorded. Method for Competition Assay (Modified from “In Vitro Evaluation of Nutrients that Selectively Confer a Competitive Advantage to Lactobacilli” Vongsa et al, Beneficial Microbes 2016) • 1. Create 2% w/v stock of prebiotic or positive control (glucose/dextrose) as described above. • 2. From a freezer stock subculture the bacteria twice into De Man, Rogosa and Sharpe (MRS) broth (BD Difco, Becton Dickinson, Franklin Lakes, NJ), 37° C., stationary, anaerobic, overnight. • 3. From the last subculture, plate onto an MRS agar plate for L. crispatus KC18-1173-1 or blood agar for S. anginosus KC18-1131-3B, grow 37° C., stationary, anaerobic, overnight. • 4. Create a bacterial suspension by using a sterile tipped swab to transfer colonies of bacteria into a PBS suspension blank to a 2 MacFarland for both species. • 5. Enumerate the starting culture. • 6. Add 9.8 mL of prebiotic media into a 15 mL conical tube. • 7. Add 100 μL of the diluted bacteria to the media, incubate at 37° C., anaerobic, 48 hours. • 8. Harvest 100 μL from the tube containing the prebiotic and plate onto MRS agar and tryptic soy agar (TSA). • 9. Enumerate the bacteria on the MRS agar (both the L. crispatus and the S. anginosus). Small colonies are counted as S. anginosus and large colonies are counted as L. crispatus. • 10. Enumerate the bacteria on the TSA plate. […] Growth of the bacteria in the negative control (CHL media without prebiotic) was subtracted from the growth in the presence of the prebiotic or formulation.

[2] = tested on: ratio of L. crispatus/S. anginosus; assay: Therapeutic effect protocol (competition assay); type: cell-based, Lactobacillus crispatus; Streptococcus anginosus; conditions: Table 6; prebiotic 2%; Lc-3 vs Sa-2
Source text: As used herein, the term “therapeutic effect” refers to the ability of the compositions and formulations of the present disclosure to stimulate the growth of L. crispatus relative S. anginosus measured according to the therapeutic effect protocol described below. The therapeutic effect can be expressed as a ratio of L. crispatus to S. anginosus and is desirably greater than about 100, more preferably greater than about 500 and more desirably greater than about 1,000.
as §1, §2
Colonies of L. crispatus and S. anginosus were tested against in the competition method assay test method as described above. The therapeutic effect was calculated by comparing the colony forming units recovered after the competition assay of both L. crispatus and S. anginosus and calculating the ratio of L. crispatus/S. anginosus. A larger number indicates an increase in L. crispatus and/or a decrease in S. anginosus and a smaller number indicates a decrease in L. crispatus and/or an increase in S. anginosus.

[3] = tested on: S. anginosus, KC18-1131-3B, Bladder (Sa-2); type: cell-based; conditions: Table 6, prebiotic 2%, one line per replicate; for Sa-2 MRS Δ / Sa-2 TSA Δ: change vs start, background growth in CHL media subtracted; for Sa-2 MRS Δ: MRS agar; for Sa-2 MRS end / Sa-2 TSA end: competition Sa-2 vs Lc-3, 48 hours; for Sa-2 MRS end: anaerobic, enumerated on MRS agar; for Sa-2 TSA end: enumerated on TSA
Experimental: as §1, §2

[4] = tested on: commensal and pathogenic bacterial species; assay: Prebiotic screening, summary in words across species; type: cell-based; conditions: for overall outcome of the screening of Table 3, in words: commensal (L. crispatus, L. gasseri, L. jensenii) and pathogenic (S. anginosus, E. faecalis) species
Experimental: (§3) Most of the prebiotic compounds were initially tested in a high throughput assay screening process, described further in the Test Methods section herein, but three prebiotics (as noted in Table 3) were tested using a plate assay screening process as described in the Test Methods section herein. The prebiotics were tested against the commensal bacterial species of Lactobacillus crispatus, Lactobacillus gasseri, and Lactobacillus jensenii and against the pathogenic bacterial species of Streptococcus anginosus and Enterococcus faecalis as shown in Table 2. The bacterial species were taken from different sources, listed as culture collection, bladder, and vagina.
(§4) The results of the assay plate screening of the prebiotic compounds of Table 1 against the bacterial species of Table 2 is documented in Table 3 with the results being described by the following legend: • ++ if growth and fermentation was equal to or greater than the positive control • + if growth and fermentation was less than the positive control • […] if weak or no growth or fermentation • NT if not tested Some codes were not tested based on the use or non-use by the bacteria, as a way to efficiently move through the assay plate screening to the competition assay, described below.
(§5) • 1. Create a 2% w/v stock of prebiotic or positive control (glucose/dextrose) to be tested in API 50 CHL media (Biomerieux, Marcy-I'Étoile, France). API 50 CHL media contains minimal amounts of carbon for growth, and a bromocresol purple as a pH indicator of fermentation. Filter sterilize media with a […]. Store at 4-6° C. until use. • 2. Add 180 μL of media containing the prebiotic to a sterile, flat bottom 96-well microtiter plate (Corning, Corning, NY). • 3. From a freezer stock subculture the bacteria twice into De Man, Rogosa and Sharpe (MRS) broth (BD Difco, Becton Dickinson, Franklin Lakes, NJ), 37° C., stationary, anaerobic, overnight. • 4. From the last subculture, plate onto an MRS agar plate (Teknova, Hollister, CA) and grow 37° C., stationary, anaerobic, overnight. • 5. Create a bacterial suspension by using a sterile tipped swab to transfer colonies of bacteria into a PBS suspension blank to a 0.5 MacFarland (S. anginosus or E. faecalis) or a 1 MacFarland (Lactobacillus species) from the MRS agar plate. • 6. Enumerate the starting culture. • 7. Inoculate the media alone and media containing the prebiotic or positive control with 20 μL of the bacterial suspension. • 8. Place the plate into a spectrophotometer (Molecular Devices, San Jose, CA) and read the plate every 20 minutes for 24-48 hours. Read wavelengths (OD 430, OD 590, and OD 660). A color change to yellow caused by a drop in pH will be read by an increase in the OD430 value and a decrease in the OD590 value and is indicative of bacterial fermentation. An increase in OD660 values is indicative of an increase in turbidity and bacterial growth.
• 1. An in house bacterial agar was created based on MRS agar (Kaplan and Hutkins, 2000) where the glucose is substituted for the prebiotic to be tested (either dextran MW ˜6,000, alpha-cyclodextrin, glucomannan, or pectin), bromocresol purple was included as a pH indicator. • 2. Bacteria were enumerated on each agar and color changes were recorded. Method for Competition Assay (Modified from “In Vitro Evaluation of Nutrients that Selectively Confer a Competitive Advantage to Lactobacilli” Vongsa et al, Beneficial Microbes 2016) • 1. Create 2% w/v stock of prebiotic or positive control (glucose/dextrose) as described above. • 2. From a freezer stock subculture the bacteria twice into De Man, Rogosa and Sharpe (MRS) broth (BD Difco, Becton Dickinson, Franklin Lakes, NJ), 37° C., stationary, anaerobic, overnight. • 3. From the last subculture, plate onto an MRS agar plate for L. crispatus KC18-1173-1 or blood agar for S. anginosus KC18-1131-3B, grow 37° C., stationary, anaerobic, overnight. • 4. […]

E. faecalis = assay: High throughput assay screening of prebiotics; type: cell-based, Enterococcus faecalis; set-up: key: ++: if growth and fermentation was equal to or greater than the positive control; +: if growth and fermentation was less than the positive control; +: if weak or no growth or fermentation; +^2: Bacteria demonstrated growth but no fermentation on the prebiotic; conditions: E. faecalis ATCC BAA-2128, Culture Collection; 2% w/v prebiotic in API 50 CHL media
Experimental: as §3, §4, §5

## O=CC[C@H](O)[C@H](O)CO [2-Deoxy-D-Ribose]
[1]
  Lc-3 MRS Δ: −5.22 Log CFU/mL and −1.90 Log CFU/mL
  Lc-3 MRS end: 0 Log CFU/mL and 4.18 Log CFU/mL
[2]
  Therapeutic Effect (ratio of L. crispatus/S. anginosus): 6.03E−07 (2×) and 1.91E−03 (2×)
[3]
  Sa-2 MRS Δ: −2.41 Log CFU/mL and −1.26 Log CFU/mL
  Sa-2 TSA Δ: −0.63 Log CFU/mL and −0.23 Log CFU/mL
  Sa-2 MRS end: 4.29 Log CFU/mL and 5.59 Log CFU/mL
  Sa-2 TSA end: 6.22 Log CFU/mL and 6.90 Log CFU/mL
[4]
  overall outcome of the screening of Table 3, in words: not able to provide growth for most, if not all, commensal and pathogenic bacterial species

## O=C[C@@H](O)[C@H](O)[C@H](O)CO [D-Arabinose]
[1]
  Lc-3 MRS Δ: −0.13 Log CFU/mL and −0.23 Log CFU/mL
  Lc-3 MRS end: 5.00 Log CFU/mL and 5.85 Log CFU/mL
[2]
  Therapeutic Effect (ratio of L. crispatus/S. anginosus): 4.07E−02 (2×) and 1.10E−01 (2×)
[3]
  Sa-2 MRS Δ: −0.27 Log CFU/mL and −0.47 Log CFU/mL
  Sa-2 TSA Δ: −0.46 Log CFU/mL and −0.32 Log CFU/mL
  Sa-2 MRS end: 6.43 Log CFU/mL and 6.38 Log CFU/mL
  Sa-2 TSA end: 6.39 Log CFU/mL and 6.81 Log CFU/mL
[4]
  overall outcome of the screening of Table 3, in words: not able to provide growth for most, if not all, commensal and pathogenic bacterial species

## OC[C@@H](O)[C@@H](O[C@@H]1O[C@H](CO)[C@H](O)[C@H](O)[C@H]1O)[C@H](O)[C@@H](O)CO [Lactitol]
[1]
  Lc-3 MRS Δ: 0.77 Log CFU/mL and 0.66 Log CFU/mL
  Lc-3 MRS end: 5.90 Log CFU/mL and 6.74 Log CFU/mL
[2]
  Therapeutic Effect (ratio of L. crispatus/S. anginosus): 2.95E−02 (2×) and 1.23E−01 (2×)
[3]
  Sa-2 MRS Δ: 0.75 Log CFU/mL and 0.69 Log CFU/mL
  Sa-2 TSA Δ: 0.58 Log CFU/mL and 0.52 Log CFU/mL
  Sa-2 MRS end: 7.45 Log CFU/mL and 7.54 Log CFU/mL
  Sa-2 TSA end: 7.43 Log CFU/mL and 7.65 Log CFU/mL
E. faecalis
  growth and fermentation vs positive control, Ef-1: +
[4]
  overall outcome of the screening of Table 3, in words: not able to provide growth for most, if not all, commensal and pathogenic bacterial species
[4]; commensal species from culture collection, the bladder, or the vagina
  growth of commensal bacterial species, in words: did not show any positive growth

## OC[C@@H](O)[C@@H](O[C@H]1O[C@H](CO)[C@@H](O)[C@H](O)[C@H]1O)[C@H](O)[C@@H](O)CO [Maltitol]
[1]
  Lc-3 MRS Δ: 0.35 Log CFU/mL and −0.08 Log CFU/mL
  Lc-3 MRS end: 5.48 Log CFU/mL and 6.00 Log CFU/mL
[2]
  Therapeutic Effect (ratio of L. crispatus/S. anginosus): 1.66E−02 (2×) and 2.51E−02 (2×)
[3]
  Sa-2 MRS Δ: −0.12 Log CFU/mL and −0.37 Log CFU/mL
  Sa-2 TSA Δ: 0.41 Log CFU/mL and 0.47 Log CFU/mL
  Sa-2 MRS end: 6.58 Log CFU/mL and 6.48 Log CFU/mL
  Sa-2 TSA end: 7.26 Log CFU/mL and 7.6 Log CFU/mL
[4]
  overall outcome of the screening of Table 3, in words: not able to provide growth for most, if not all, commensal and pathogenic bacterial species
